Results as given in patent publication EP0269947B2, “Antiviral phosphonomethoxyalkylene purine and pyrimidine derivatives” (priority 1986, dated 1988).

How the values were obtained:
Parameters in all cases: unit not given here
[1] = system: Murine leukemia virus (MuLV); test: UV-XC plaque assay against murine retroviruses; type: cell-based; conditions: MuLV in SC-1 cells
Description: The compounds wore evaluated for antiviral activity against Murine leukemia virus (MuLV) strains using the UV-XC plaque assay (Rowe, et al., "Virology," 42:1136, 1970).
The MuLV strains were grown in feral mouse cells (SC-1) and used for antiviral tests using the UV-XC plaque assay. Briefly, SC-1 coils are grown as monolayers in 4-well tissue culture plates and inoculated with approximately 50-100 plaque forming units of MuLV in 0.5 ml of 5% EMEM containing 20 ug/ml DEAE/Dextran. After 1 hr. adsorbtion, the inoculum is removed and 5 ml of 5% EMEM containing three-fold dilutions of the appropriate drug are added. Five days later, the cultures are UV-irradiated with an ultraviolet lamp and rat XC sarcoma cells are added to the cultures. Three-four days after UV-irradiation, the cell cultures are stained with Giemsa stain and the plaques are enumerated. Antiviral activity is expressed in terms of the reduction in the mean number of UV-XC plaques counted in the drug treated, virus-infected cultures compared with mean number of plaques counted in untreated, virus-infected control cultures. The ID50 for each drug was determined.

[2] = system: Human cytomegalovirus (HCMV) strain (AD169); test: Plaque reduction assay against human cytomegalovirus; type: cell-based; conditions: HCMV strain AD169 in MRC-5 cells
Description: (§1) The titer of HSV strains is determined by a plaque titration method (Roizman and Roane,"Virology," 15:75-79, 1961). Tissue culture 24-well petri dishes are seeded with cells and used for assays when approximately 75% monolayer. Volumes (0.1ml) of logarithmic dilutions of the virus strain are inoculated onto each of triplicate wells, and absorbed for one hour with intermittent shaking. The inoculum thereafter is removed, and 1 ml of 5-10% EMEM containing 0.3% human immune serum globulin is added. After a 48 hr. incubation period at 37°C in a 5% CO2 atmosphere, the overlay medium is removed and the cell sheets stained with Giemsa stain. The number of plaques is counted, the triplicate is averaged, and the number of plaque-forming units per ml is calculated.
(§2) The compounds are tested for activity against the herpes simplex strains using a stock solution of each compound freshly prepared. Appropriate dilution of each compound are made in 10% EMEM before usage. The antiviral efficacy of each compound is determined using the plaque reduction assay described above. Briefly, tissue culture 24-well plates, with approximately 75% cell monolayer are inoculated with approximately 50 plaque forming units of HSV per 0.1 ml, and the virus adsorbed for 1 hr, with intermittent shaking. After removal of the inoculum, 1 ml of 10% EMEM containing two-fold dilutions of the appropriate drug are added in triplicates. Triplicate wells/plate receives no drug and are used as a virus control. After a 48-hour incubation period, at 37°C in a 5% CO2 atmosphere, the overlay medium is removed, the cells stained as described above, and plaques are counted. The counts of triplicate wells are averaged, and the number of plaques in the presence of each drug dilution are calculated.
(§3) The antiviral potency of the drug is determined by ID50, the drug concentration necessary to reduce the number of plaques by 50% of those in the virus control cultures.
Human cytomegalovirus (HCMV) strain (AD169) was grown and titered at 37° in human embryonic lung (diploid) cells, MRC-5, and used for the antiviral assay.
The compounds are tested for activity against the HCMV using the procedure for the plaque reduction assay described above.

HSV-1 [3] = test: Plaque reduction assay, herpes simplex virus type 1; type: cell-based, Herpes simplex virus (HSV); conditions: vero cells, 48-hour incubation; concentration reducing number of plaques by 50%
Description: (§4) Herpes simplex virus (HSV) strains wars grown and titered at 37°C in vero cells (African Green Monkey Kidney cells) and used for virus work before the tenth passage.
(§5) Cells were grown and maintained in Earle's Minimum Essential Medium (EMEM), Gibco Laboratories, supplemented with 0.75% sodium bicarbonate, 2mM 1-glutamine, Pen-strep. and 5-10% fetal calf serum.
as §1, §2, §3

HSV-2 [4] = test: Colorimetric dye-uptake assay (neutral red), herpes simplex virus type 2; type: cell-based, Herpes simplex virus (HSV); conditions: vero cells, 48 hr incubation, neutral red stain; ID50 by linear regression
Description: as §4, §5
(§6) For the primary screening, a colorimetric dye-uptake assay (McLaren, C., et al., "Antiviral Research," 3:323, 1983) is used employing rapidly growing vero cells. Briefly, cells, compound and virus dilutions are added onto 96-well tissue culture plates simultaneously using the cells, viruses and medium described above. After 48 hr. incubation at 37°C in 5% CO2 atmosphere, the overlay medium is removed and the cell sheets are stained with 0.04% neutral red solution. After 30 min. incubation at 37°C, the cell sheets are washed and the stain is eluted with 0.05 M sodium monophosphate in 47% ethanol and the O.D. is determined at 540 nm wave length.
(§7) The 50% inhibitory dose (ID50) for each drug is determined by linear regression analysis.

HSV-2 [5] = test: Plaque reduction assay, herpes simplex virus type 2; type: cell-based, Herpes simplex virus (HSV); conditions: vero cells, 48-hour incubation; concentration reducing number of plaques by 50%
Description: as §4, §5, §1, §2, §3

HSV-1 [6] = test: Colorimetric dye-uptake assay (neutral red), herpes simplex virus type 1; type: cell-based, Herpes simplex virus (HSV); conditions: vero cells, 48 hr incubation, neutral red stain; ID50 by linear regression
Description: as §4, §5, §6, §7

SMILES | Muly ID50 [1] | CMV ID50 [2] | Plaque Reduction HSV-1 ID50 (HSV-1 [3]) | Dye-Uptake HSV-2 ID50 (HSV-2 [4]) | Plaque Reduction HSV-2 ID50 (HSV-2 [5]) | Dye-Uptake HSV-1 ID50 (HSV-1 [6])
Cc1cn([C@H]2C[C@H](N=[N+]=[N-])[C@@H](CO)O2)c(=O)[nH]c1=O [3'-Azido-3'-deoxythymidine, reference compound] | 0.0001 |  |  |  |  | 
Nc1nc2c(ncn2COC(CO)CO)c(=O)[nH]1 [9-(1,3-Dihydroxypropoxymethyl)guanine, reference compound] |  | 1.2 |  |  |  | 
Nc1ncnc2c1ncn2C[C@@H](CO)OCP(=O)(O)O [(S)-9-(3-Hydroxy-2-phosphonomethoxy)propyl adenine, reference compound] | 2.0 | 0.13 | 13.8 | > 25 | 35.8 | 15.1
Nc1nc2c(ncn2COCCO)c(=O)[nH]1 [Acyclovir, reference compound] |  |  | 0.3 | 1.0 | 1.5 | 0.5
CCOP(=O)(O)COCCn1cnc2c(=O)[nH]c(N)nc21 [Ex. 7, 9-(2-(Monoethylphosphonomethoxy)ethyl)guanine] | 0.56 | 0.23 | 4.8 | 8 | 5.1 | 12
CC(COCP(=O)(O)O)n1cnc2c(=O)[nH]c(N)nc21 (centres unmarked) [Ex. 13] |  |  | 3.0 | 10.4 | 3.3 | 8.7
Nc1nc2c(ncn2CCCOCP(=O)(O)O)c(=O)[nH]1 [Ex. 18] | 0.04 | 6.0 |  |  |  | 
Nc1ncc2ncn(CCOCP(=O)(O)O)c2n1 [Ex. 25] |  | <0.032 |  |  |  | 
COP(=O)(O)COCCn1cnc2c(=O)[nH]c(N)nc21 [Ex. 32] | 0.05 |  | 1.6 | 3.8 | 1.2 | 1.5
CCCOP(=O)(O)COCCn1cnc2c(=O)[nH]c(N)nc21 [Ex. 33] |  |  | 9.7 |  | 9.9 | 
CC(C)OP(=O)(O)COCCn1cnc2c(=O)[nH]c(N)nc21 [Ex. 34] | 1.72 |  | 74.9 |  | 34.8 | 
